Assays:
EGFR = EGFR (Homo sapiens, UniProt P00533); assay: Immunoblot analysis of EGFR phosphorylation and total EGFR; details: for total EGFR levels: upon treatment, PrEC
RWPE cells [1] = assay: Sarcosine-induced invasion after pre-treatment with EGFR inhibitor; format: cell-based; details: pre-treatment of RWPE cells with 10 μM
From the text: (§1) To investigate the biological role of sarcosine elevation in prostate cancer, prostate cancer cell lines VCaP, DU145, 22RV1 and LNCaP and their benign epithelial counterparts, primary benign prostate epithelial cells PrEC and immortalized benign RWPE prostate cells were used.

RWPE cells [2] = assay: Invasion upon exogenous sarcosine or glycine with siRNA knock-down of GNMT; format: cell-based
Description: (§2) To determine if sarcosine plays a role in this process, it was added directly to non-invasive benign prostate epithelial cells. Alanine (an isomer of sarcosine) was used as a control for these experiments. […] The present invention is not limited to a particular mechanism. Indeed, an understanding of the mechanism is not necessary to practice the present invention.

[3] = system: benign prostate epithelial cells; assay: Modified Boyden chamber matrigel invasion assay, exogenous addition of amino acids; format: cell-based; details: compared with sarcosine
Description: as §1, §2

p38MAPK = assay: Immunoblot analysis of p38MAPK phosphorylation; format: cell-based; details: sarcosine-treated PrEC
From the text: (§3) Also total EGFR levels were elevated upon treatment with alanine or sarcosine. […]. […] This observation was further strengthened using both antibody-mediated inhibition of EGFRactivity and siRNA-mediated knock-down of receptor levels.

src = assay: Immunoblot analysis of src phosphorylation; format: cell-based; details: sarcosine-treated PrEC compared to alanine-treated controls
From the text: as §3

[4] = control non-target siRNA-transfected cells

Chain of EGFR (P00533 25-1210): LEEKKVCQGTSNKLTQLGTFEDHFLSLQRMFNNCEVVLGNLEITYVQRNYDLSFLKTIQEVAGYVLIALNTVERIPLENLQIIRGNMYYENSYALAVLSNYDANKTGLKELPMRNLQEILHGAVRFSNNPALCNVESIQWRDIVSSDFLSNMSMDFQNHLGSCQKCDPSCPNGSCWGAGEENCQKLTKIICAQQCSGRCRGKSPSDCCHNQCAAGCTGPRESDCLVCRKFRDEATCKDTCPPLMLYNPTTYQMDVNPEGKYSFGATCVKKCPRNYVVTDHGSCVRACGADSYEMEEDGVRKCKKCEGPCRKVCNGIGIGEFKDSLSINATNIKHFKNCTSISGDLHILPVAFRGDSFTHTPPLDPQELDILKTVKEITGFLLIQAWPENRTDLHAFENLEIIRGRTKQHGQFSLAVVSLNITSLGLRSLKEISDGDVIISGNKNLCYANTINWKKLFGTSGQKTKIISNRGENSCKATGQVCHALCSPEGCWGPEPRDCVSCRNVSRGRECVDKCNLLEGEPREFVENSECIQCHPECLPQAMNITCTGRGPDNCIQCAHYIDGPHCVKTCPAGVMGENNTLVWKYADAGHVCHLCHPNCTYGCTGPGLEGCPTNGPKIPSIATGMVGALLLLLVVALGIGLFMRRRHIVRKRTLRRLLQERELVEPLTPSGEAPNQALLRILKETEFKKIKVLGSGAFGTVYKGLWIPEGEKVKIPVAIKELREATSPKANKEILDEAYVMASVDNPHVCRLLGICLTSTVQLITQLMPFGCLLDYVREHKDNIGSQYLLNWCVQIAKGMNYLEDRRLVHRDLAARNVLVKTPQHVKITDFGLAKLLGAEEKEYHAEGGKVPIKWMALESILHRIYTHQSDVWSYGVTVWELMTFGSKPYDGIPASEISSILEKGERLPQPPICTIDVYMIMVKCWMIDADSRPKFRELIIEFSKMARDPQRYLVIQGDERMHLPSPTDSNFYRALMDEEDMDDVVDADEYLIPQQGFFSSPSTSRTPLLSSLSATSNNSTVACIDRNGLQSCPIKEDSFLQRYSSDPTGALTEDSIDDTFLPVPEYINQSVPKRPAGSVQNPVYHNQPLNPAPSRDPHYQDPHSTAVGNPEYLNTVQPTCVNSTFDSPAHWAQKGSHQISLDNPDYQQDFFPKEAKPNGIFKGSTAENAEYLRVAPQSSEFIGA

SMILES | total EGFR levels (EGFR) | invasion upon exogenous amino acid addition, mean±SEM (RWPE cells [2]; GNMT knockdown) | invasion upon exogenous amino acid addition, mean±SEM (RWPE cells [2]; [4]) | also measured
C[C@H](N)C(=O)O [alanine, reference compound] | elevated | – | – | –
C#Cc1cccc(Nc2ncnc3cc(OCCOC)c(OCCOC)cc23)c1 [erlotinib] | – | – | – | decrease in sarcosine-induced invasion (RWPE cells [1]): 2 fold
NCC(=O)O [glycine] | – | 0.20±0.03 | 0.46±0.04 | induction of invasion [3]: also induced invasion in these cells, although to a lesser degree than sarcosine
CNCC(=O)O [sarcosine, N-methylglycine] | elevated | 0.64±0.07 | 0.65±0.05 | p38MAPK phosphorylation (p38MAPK): phosphorylation of p38MAPK; src phosphorylation (src): time-dependent increase; EGFR phosphorylation (EGFR; sarcosine-treated PrEC compared to alanine-treated controls): time-dependent increase
